Experimental data reported in PubChem BioAssay AID1963980 (Molecular Pharmacology Branch, DTP, NCI, 2024).

Tested on: 475296-252-R-J1-PDC spheroid viability
Assay: Anticancer human tumor 475296-252-R-J1-PDC patient-derived rectal carcinoma cell line growth inhibition [PI3K]
Details: spheroids with HUVEC and MSC; for IC50: curve of first compound; for viability, T/C: stronger effect = lower value
Text: Combinatorial screen of targeted agents with the PI3K inhibitors inavolisib, alpelisib, duvelisib, and copanlisib in multi-cell type tumor spheroids
A high-throughput screen of multi-cell type tumor spheroids was designed to identify active combinations of targeted small molecules and PI3K pathway inhibitors. Complex spheroids include a stromal component modeled by human endothelial cells (HUVEC) and fibroblasts modeled by human mesenchymal stem cells (MSCs). The concentration ranges selected for each drug and investigational agent were based upon clinically achievable concentrations if the clinical Cmax of the agent was known.
Compounds. The drugs and investigational agents: inavolisib (NSC800729), alpelisib (NSC765974), duvelisib (NSC772469), copanlisib (NSC816437), ipatasertib (NSC767898), afuresertib (NSC778305), talazoparib (NSC767125), sapanisertib (NSC764658), selumetinib (NSC741078), tovorafenib (DAY101, NSC766906), vemurafenib (NSC761431), ravoxertinib (NSC781343), sotorasib (NSC818433), MRTX1133 (NSC 836407), abemaciclib (NSC 768073), palbociclib (NSC758247), venetoclax (NSC 766270), SY5609 (NSC837396), enzalutamide (NSC755605), and darolutamide (NSC825331), were obtained from the National Cancer Institute (NCI) Developmental Therapeutics Program Chemical Repository. The FDA-approved anticancer drug set is available from the NCI Developmental Therapeutics Program. […] The stock solutions were prepared in dimethyl sulfoxide (DMSO, Sigma-Aldrich, St. Louis, MO, cat. D2650) at 800-fold the tested concentration and stored at -70 degrees C prior to their use. All drugs and investigational agents were tested over a range starting from a high concentration at or near the clinical Cmax and decreasing in half-log increments. If the clinical Cmax for an agent had not been determined, the highest concentration tested was 10 microM.
Cell Culture. All cells were maintained in an incubator at 37 degrees C and 5% CO2 with 95% humidity. The PDC lines were cultured according to standard operating procedures established by the NCI PDMR (https://pdmr.cancer.gov/sops/default.htm). All PDCs were thawed and cultured in Matrigel-coated flasks prepared with a working solution of 1X Ham's F-12 nutrient mix, without supplementation (Invitrogen, Waltham, MA, cat. 11765054), 100 U/mL penicillin-streptomycin (Invitrogen, cat. 15140122), and 2.5% Matrigel (Corning Inc., Corning, NY, cat. 354248) for the first three passages. The 354836-022-R-J1-PDC, 475296-252-R-J1-PDC, and 997726-040-R-J2-PDC lines were cultured in 6A media, which includes advanced DMEM/F-12 (Thermo Fisher Scientific, cat. 12634028), 10 mM HEPES (Thermo Fisher Scientific, cat. 15630080), 1X GlutaMAX supplement (Thermo Fisher Scientific, cat. 35050061), 0.1 mg/mL primocin (InvivoGen, San Diego, CA, cat. ant-pm-2), 10% defined fetal bovine serum, heat inactivated (HyClone Laboratories Inc., Logan, UT, cat. SH30070.03HI), 50% L-WRN conditioned media (ATCC, cat. CRL-3276), 1.25 mM N-Acetyl-L-cysteine (Sigma-Aldrich, cat. A9165), 10 mM nicotinamide (Sigma-Aldrich, cat. N0636), 1X B-27 supplement (Thermo Fisher Scientific, cat. 17504044), 1X N-2 supplement (Thermo Fisher Scientific, cat. 17502048), and 10 microM Y-27632 dihydrochloride (Tocris Bioscience, Bristol, United Kingdom, cat. 1254). The 624824-186-R-J2-PDC line was cultured in 6C/Colon 1B media, which includes all 6A media components plus 50 ng/mL human EGF recombinant protein (Thermo Fisher Scientific, cat. PHG0311). […]

[1] = second compound 0.0316 µM, first compound 0.0316 µM
[2] = second compound 0.0316 µM, first compound 0.1 µM
[3] = second compound 0.0316 µM, first compound 0.316 µM
[4] = second compound 0.0316 µM, first compound 1 µM
[5] = second compound 0.0316 µM, first compound 3.16 µM
[6] = second compound 0.0316 µM, first compound 10 µM
[7] = second compound 0.1 µM, first compound 0.0316 µM
[8] = second compound 0.1 µM, first compound 0.1 µM
[9] = second compound 0.1 µM, first compound 0.316 µM
[10] = second compound 0.1 µM, first compound 1 µM
[11] = second compound 0.1 µM, first compound 3.16 µM
[12] = second compound 0.1 µM, first compound 10 µM
[13] = second compound 0.316 µM, first compound 0.0316 µM
[14] = second compound 0.316 µM, first compound 0.1 µM
[15] = second compound 0.316 µM, first compound 0.316 µM
[16] = second compound 0.316 µM, first compound 1 µM
[17] = second compound 0.316 µM, first compound 3.16 µM
[18] = second compound 0.316 µM, first compound 10 µM
[19] = second compound 1 µM, first compound 0.0316 µM
[20] = second compound 1 µM, first compound 0.1 µM
[21] = second compound 1 µM, first compound 0.316 µM
[22] = second compound 1 µM, first compound 1 µM
[23] = second compound 1 µM, first compound 3.16 µM
[24] = second compound 1 µM, first compound 10 µM
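Further: spheroids exposed to agents for seven days before readout.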

In the case of CNC(=O)c1ccc(N2C(=S)N(c3ccc(C#N)c(C(F)(F)F)c3)C(=O)C2(C)C)cc1F + CC(Nc1ccc2c(c1)OCCn1cc(N3C(=O)OCC3C(F)F)nc1-2)C(N)=O, the IC50 (second compound 0.00316 µM) is reported as > 10 µM, the IC50 (second compound 0.01 µM) is reported as > 10 µM and the IC50 (second compound 0.0316 µM) is reported as > 10 µM. The IC50 (second compound 0.1 µM) was > 10 µM, the IC50 (second compound 0.316 µM) was > 10 µM and the IC50 (second compound 1 µM) was > 10 µM. The viability, T/C (second compound 0.00316 µM, first compound 0.0316 µM) was 98.4%, the viability, T/C (second compound 0.00316 µM, first compound 0.1 µM) was 85% and the viability, T/C (second compound 0.00316 µM, first compound 0.316 µM) was 102%. For the same compound, the viability, T/C (second compound 0.00316 µM, first compound 1 µM) was 84.3%, the viability, T/C (second compound 0.00316 µM, first compound 3.16 µM) was 100% and the viability, T/C (second compound 0.00316 µM, first compound 10 µM) was 104%. It also gave a viability, T/C (second compound 0.01 µM, first compound 0.0316 µM) of 95.4%, a viability, T/C (second compound 0.01 µM, first compound 0.1 µM) of 90.4% and a viability, T/C (second compound 0.01 µM, first compound 0.316 µM) of 102%. It also gave a viability, T/C (second compound 0.01 µM, first compound 1 µM) of 93%, a viability, T/C (second compound 0.01 µM, first compound 3.16 µM) of 99.3% and a viability, T/C (second compound 0.01 µM, first compound 10 µM) of 85.1%. It also gave a viability, T/C [1] of 94.6%, a viability, T/C [2] of 87.7% and a viability, T/C [3] of 94.2%. The viability, T/C [4] was 99.9%, the viability, T/C [5] was 96.9% and the viability, T/C [6] was 103%. It also gave a viability, T/C [7] of 87.1%, a viability, T/C [8] of 93.6% and a viability, T/C [9] of 90%. The viability, T/C [10] was 100%, the viability, T/C [11] was 97.5% and the viability, T/C [12] was 91.3%. The viability, T/C [13] was 87.7%, the viability, T/C [14] was 93.8% and the viability, T/C [15] was 84.9%. For the same compound, the viability, T/C [16] was 94.3%, the viability, T/C [17] was 92.5% and the viability, T/C [18] was 90.9%. For the same compound, the viability, T/C [19] was 98.1%, the viability, T/C [20] was 89% and the viability, T/C [21] was 91.3%. The viability, T/C [22] was 84%, the viability, T/C [23] was 94.3% and the viability, T/C [24] was 80.8%.
For CC1(C)CCC(Nc2ncc(C(F)(F)F)c(-c3c[nH]c4c(P(C)(C)=O)c(C#N)ccc34)n2)CN1 (centres undefined) + CC(Nc1ncnc2nc[nH]c12)c1cc2cccc(Cl)c2c(=O)n1-c1ccccc1, the IC50 (second compound 0.0316 µM) was > 10 µM, the IC50 (second compound 0.1 µM) was > 10 µM and the IC50 (second compound 0.316 µM) was > 10 µM. The IC50 (second compound 1 µM) was > 10 µM, the IC50 (second compound 3.16 µM) was > 10 µM and the IC50 (second compound 10 µM) was 9.12 µM. It also gave a viability, T/C [1] of 97.6%, a viability, T/C [2] of 93% and a viability, T/C [3] of 93.1%. It also gave a viability, T/C [4] of 129%, a viability, T/C [5] of 160% and a viability, T/C [6] of 64.5%. It also gave a viability, T/C [7] of 98%, a viability, T/C [8] of 91.5% and a viability, T/C [9] of 95.1%. It also gave a viability, T/C [10] of 117%, a viability, T/C [11] of 159% and a viability, T/C [12] of 52.2%. It also gave a viability, T/C [13] of 93.8%, a viability, T/C [14] of 86.8% and a viability, T/C [15] of 114%. It also gave a viability, T/C [16] of 120%, a viability, T/C [17] of 164% and a viability, T/C [18] of 55.7%. It also gave a viability, T/C [19] of 98.8%, a viability, T/C [20] of 92.9% and a viability, T/C [21] of 86.5%. For the same compound, the viability, T/C [22] was 139%, the viability, T/C [23] was 166% and the viability, T/C [24] was 54.1%. For the same compound, the viability, T/C (second compound 3.16 µM, first compound 0.0316 µM) was 91.9%, the viability, T/C (second compound 3.16 µM, first compound 0.1 µM) was 86% and the viability, T/C (second compound 3.16 µM, first compound 0.316 µM) was 89.6%. It also gave a viability, T/C (second compound 3.16 µM, first compound 1 µM) of 113%, a viability, T/C (second compound 3.16 µM, first compound 3.16 µM) of 154% and a viability, T/C (second compound 3.16 µM, first compound 10 µM) of 53.3%. It also gave a viability, T/C (second compound 10 µM, first compound 0.0316 µM) of 88.7%, a viability, T/C (second compound 10 µM, first compound 0.1 µM) of 81.6% and a viability, T/C (second compound 10 µM, first compound 0.316 µM) of 102%. For the same compound, the viability, T/C (second compound 10 µM, first compound 1 µM) was 128%, the viability, T/C (second compound 10 µM, first compound 3.16 µM) was 152% and the viability, T/C (second compound 10 µM, first compound 10 µM) was 44.7%.
